The text below walks through data of PMC11093223, “Cargo selective vesicle tethering: The structural basis for binding of specific cargo proteins by the Golgi tether component TBC1D23” (Science Advances, 2024).

The target of experiment [1] is T1, TBC1D23 C-terminal domain V626D (Mus musculus, UniProt Q8K0F1, V626D).
T1 construct: Both the wild-type and mutant C-terminal domains were concentrated to 100 μM; GST (N, cleaved yes); made in house; host or cells: E. coli BL21 pLysS
The experiment in a line: ITC of syntaxin-16 peptide binding to TBC1D23 C-terminal domain mutant V626D. As to the method:
(§1) Experiments were performed using a Nano ITC machine from TA Instruments. TBC1D23 C-terminal domains were gel-filtered into buffer composed of 100 mM NaCl, 100 mM tris (pH 7.4), and 1 mM tris(2-carboxyethyl)phosphine (TCEP). Peptides were dissolved in the same batch of buffer. Both the wild-type and mutant C-terminal domains were concentrated to 100 μM (1.4 mg/ml) with peptide concentration varying between 0.8 and 5 mM (depending on the peptide). Peptides were titrated into TBC1D23 C-terminal domains with 20 injections of 2.4 μl each separated by 300-s intervals. Experiments were conducted at 20°C. […] Data were exported to GraphPad Prism for figure generation.
(§2) Recombinant proteins were expressed in BL21 plyS E. coli grown in shaking 2× TY medium at 37°C. Expression was induced with 0.2 mM IPTG, and cells were grown overnight at 22°C. Cells were resuspended in buffer A [250 mM NaCl, 20 mM tris (pH 7.4), and 1 mM DTT] supplemented with 4-benzenesulfonyl fluoride hydrochloride, MnCl2 and deoxyribonuclease I. Cell pellets were lysed using a cell disruptor (Constant Systems) before clarification by ultracentrifugation (104,350 relative centrifugal force) for 45 min. The supernatant was batch bound to glutathione-Sepharose resin (Cytiva) in buffer A before washing with 400 ml of buffer A and overnight cleavage of the GST-tag with thrombin at room temperature. […]

Experiment [2] has as its target T2, TBC1D23 C-terminal domain I675W (Mus musculus, UniProt Q8K0F1, I675W).
T2 construct: GST (N, cleaved yes); made in house; host or cells: E. coli BL21 pLysS
The experiment in a line: ITC of syntaxin-16 peptide binding to TBC1D23 C-terminal domain mutant I675W. As to the method: as §1, §2

For experiment [3], the target named is T3, TBC1D23 C-terminal domain K672A (Mus musculus, UniProt Q8K0F1, K672A).
T3 construct: Both the wild-type and mutant C-terminal domains were concentrated to 100 μM; GST (N, cleaved yes); made in house; host or cells: E. coli BL21 pLysS
T3 sequence (Q8K0F1 559-684 K672A limits assumed): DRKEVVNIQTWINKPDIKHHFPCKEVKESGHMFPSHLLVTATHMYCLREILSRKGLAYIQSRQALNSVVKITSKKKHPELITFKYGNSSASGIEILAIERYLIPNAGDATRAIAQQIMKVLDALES
Nature of the experiment: ITC of syntaxin-16 peptide binding to TBC1D23 C-terminal domain mutant K672A. The settings on record: mean of three runs, read-out: Mean affinity. As to the method:
as §1, §2

The target in experiment [4] is T4, TBC1D23 C-terminal domain (Mus musculus, UniProt Q8K0F1).
T4 construct: TBC1D23 C-terminal domains were gel-filtered into buffer; GST (N, cleaved yes); made in house; host or cells: E. coli BL21 pLysS
T4 sequence (Q8K0F1 559-684 limits assumed): as the sequence (Q8K0F1 559-684 K672A limits assumed) above, with A114K counted along it
Nature of the experiment: ITC of cargo and mutant syntaxin-16 peptides binding to wild-type TBC1D23 C-terminal domain. The settings on record: for pKd / KD (μM): 20°C; for KD (μM): peptide (0.8-5 mM) titrated into 100 μM domain, 100 mM NaCl, 100 mM tris pH 7.4, 1 mM TCEP, mean of three independent runs. As to the method: as §1
Recombinant proteins were expressed in BL21 plyS E. coli grown in shaking 2× TY medium at 37°C. Expression was induced with 0.2 mM IPTG, and cells were grown overnight at 22°C. Cells were resuspended in buffer A [250 mM NaCl, 20 mM tris (pH 7.4), and 1 mM DTT] supplemented with 4-benzenesulfonyl fluoride hydrochloride, MnCl2 and deoxyribonuclease I. Cell pellets were lysed using a cell disruptor (Constant Systems) before clarification by ultracentrifugation (104,350 relative centrifugal force) for 45 min. The supernatant was batch bound to glutathione-Sepharose resin (Cytiva) in buffer A before washing with 400 ml of buffer A and overnight cleavage of the GST-tag with thrombin at room temperature. The resultant flow through was concentrated for gel filtration Superdex 200 column (GE Healthcare) into either buffer A for crystallization or into ITC buffer [100 mM NaCl, 100 mM tris (pH 7.4), and 1 mM TCEP].

Setting [5] is: bound, no measurable binding, read-out: Affinity.
Setting [6] is: pH 7.4, bound given for peptides without measurable binding, read-out: Affinity.
The mark [7] stands for this setting: pH 7.4, mean of three runs, read-out: Mean affinity.

pKd: −log10 of the molar value. “Also recorded” adds a separate entry of the source. Like-named read-outs stand apart in the source and are kept apart here. Residues, ends and D or L forms follow the SMILES beside them.

T1 sequence (Q8K0F1 559-684 V626D limits assumed): as the sequence (Q8K0F1 559-684 K672A limits assumed) above, with V68D, A114K counted along it
T2 sequence (Q8K0F1 559-684 I675W limits assumed): as the sequence (Q8K0F1 559-684 K672A limits assumed) above, with A114K, I117W counted along it

Consider `CC(C)C[C@H](NC(=O)[C@@H](NC(=O)[C@H](CC(N)=O)NC(=O)[C@H](CC(=O)O)NC(=O)[C@@H](N)CC(=O)O)[C@@H](C)O)C(=O)N[C@@H](Cc1ccc(O)cc1)C(=O)N[C@@H](Cc1c[nH]cn1)C(=O)N[C@@H](CCCNC(=N)N)C(=O)NCC(=O)N[C@@H](Cc1ccccc1)C(=O)N[C@H](C(=O)N[C@@H](CCC(=O)O)C(=O)N[C@@H](CC(=O)O)C(=O)O)[C@@H](C)O` [STX16_TLY] (H-DDNTLYHRGFTED-OH), for which the “KD (μM)” value in experiment [1] (20°C, pH 7.4, figure and text, listed as syntaxin-16 peptide) was “abolishes peptide binding; also recorded: No binding”; in experiment [2] (20°C, pH 7.4, figure and text), “No binding”. Also, the figures for the pKd in experiment [1] (setting [5]), in experiment [2] (setting [5]) and in experiment [3] were < 3.70, < 3.70 and 4.56, respectively.
For `CC(C)C[C@H](NC(=O)[C@@H](NC(=O)[C@H](CC(N)=O)NC(=O)[C@H](C)NC(=O)[C@H](C)N)[C@@H](C)O)C(=O)N[C@@H](Cc1ccc(O)cc1)C(=O)N[C@@H](Cc1c[nH]cn1)C(=O)N[C@@H](CCCNC(=N)N)C(=O)NCC(=O)N[C@@H](Cc1ccccc1)C(=O)N[C@H](C(=O)N[C@@H](CCC(=O)O)C(=O)N[C@@H](CC(=O)O)C(=O)O)[C@@H](C)O` [STX16_DDAA] (H-AANTLYHRGFTED-OH; N-terminus and C-terminus assumed), the pKd in experiment [4] (setting [6]) was < 3.70.
On to `CC(C)C[C@H](NC(=O)[C@@H](NC(=O)[C@H](CCC(=O)O)NC(=O)[C@H](CCC(=O)O)NC(=O)[C@@H](N)CCC(=O)O)[C@@H](C)O)C(=O)N[C@@H](Cc1ccc(O)cc1)C(=O)N[C@@H](CO)C(=O)N[C@@H](CO)C(=O)N[C@@H](CCCCN)C(=O)N[C@@H](Cc1c[nH]cn1)C(=O)O` [CPD_TLY] (H-EEETLYSSKH-OH), for which the pKd in experiment [4] (setting [7]) is 4.97.
Same read-out and setting: the value for `C[C@@H](O)[C@H](NC(=O)[C@H](Cc1ccccc1)NC(=O)CNC(=O)[C@H](CCCNC(=N)N)NC(=O)[C@H](Cc1c[nH]cn1)NC(=O)[C@H](Cc1ccc(O)cc1)NC(=O)[C@H](Cc1ccccc1)NC(=O)[C@@H](NC(=O)[C@H](CC(N)=O)NC(=O)[C@H](CC(=O)O)NC(=O)[C@@H](N)CC(=O)O)[C@@H](C)O)C(=O)N[C@@H](CCC(=O)O)C(=O)N[C@@H](CC(=O)O)C(=O)O` [STX16_LtoF] (H-DDNTFYHRGFTED-OH) was 3.82.
As for `CC(C)C[C@H](NC(=O)[C@@H](NC(=O)[C@H](CC(N)=O)NC(=O)[C@H](CC(=O)O)NC(=O)[C@@H](N)CC(=O)O)[C@@H](C)O)C(=O)N[C@@H](Cc1c[nH]c2ccccc12)C(=O)N[C@@H](Cc1c[nH]cn1)C(=O)N[C@@H](CCCNC(=N)N)C(=O)NCC(=O)N[C@@H](Cc1ccccc1)C(=O)N[C@H](C(=O)N[C@@H](CCC(=O)O)C(=O)N[C@@H](CC(=O)O)C(=O)O)[C@@H](C)O` [STX16_YtoW] (H-DDNTLWHRGFTED-OH), the pKd in experiment [4] (setting [7]) is 5.25.
Take `CC(C)[C@H](NC(=O)[C@@H](NC(=O)[C@H](Cc1ccccc1)NC(=O)[C@H](CC(=O)O)NC(=O)CNC(=O)[C@H](CC(=O)O)NC(=O)[C@H](CCC(=O)O)NC(=O)[C@H](CC(N)=O)NC(=O)[C@H](CCC(=O)O)NC(=O)[C@H](CCC(=O)O)NC(=O)[C@@H](N)CC(=O)O)[C@@H](C)O)C(=O)N[C@@H](Cc1ccc(O)cc1)C(=O)N[C@@H](CCC(=O)O)C(=O)N[C@@H](CS)C(=O)O` [NPDC1_TVY] (H-DEENEDGDFTVYEC-OH): the pKd in experiment [4] (setting [7]) is 5.54.
As to `CC(C)C[C@H](NC(=O)[C@H](C)NC(=O)[C@H](CC(N)=O)NC(=O)[C@H](CC(=O)O)NC(=O)[C@@H](N)CC(=O)O)C(=O)N[C@@H](Cc1ccc(O)cc1)C(=O)N[C@@H](Cc1c[nH]cn1)C(=O)N[C@@H](CCCNC(=N)N)C(=O)NCC(=O)N[C@@H](Cc1ccccc1)C(=O)N[C@H](C(=O)N[C@@H](CCC(=O)O)C(=O)N[C@@H](CC(=O)O)C(=O)O)[C@@H](C)O` [STX16_TtoA] (H-DDNALYHRGFTED-OH; N-terminus and C-terminus assumed), the pKd in experiment [4] (setting [6]) was < 3.70. In addition, in experiment [4], the “KD (μM)” value is given as “No binding”.
Turning to `CC[C@H](C)[C@H](NC(=O)[C@@H](NC(=O)[C@H](CC(=O)O)NC(=O)[C@H](CCC(N)=O)NC(=O)[C@H](CC(=O)O)NC(=O)[C@H](CO)NC(=O)[C@H](CC(=O)O)NC(=O)[C@H](Cc1ccccc1)NC(=O)[C@H](CCC(=O)O)NC(=O)[C@H](CO)NC(=O)[C@@H](N)CCC(=O)O)[C@@H](C)O)C(=O)N[C@@H](Cc1ccccc1)C(=O)O` [KIAA0319_TIF] (H-ESEFDSDQDTIF-OH), the pKd in experiment [4] (setting [7]) is 4.45.
Regarding `C[C@@H](O)[C@H](NC(=O)[C@H](Cc1ccccc1)NC(=O)CNC(=O)[C@H](CCCNC(=N)N)NC(=O)[C@H](Cc1c[nH]cn1)NC(=O)[C@H](Cc1ccc(O)cc1)NC(=O)[C@H](CO)NC(=O)[C@@H](NC(=O)[C@H](CC(N)=O)NC(=O)[C@H](CC(=O)O)NC(=O)[C@@H](N)CC(=O)O)[C@@H](C)O)C(=O)N[C@@H](CCC(=O)O)C(=O)N[C@@H](CC(=O)O)C(=O)O` [STX16_LtoS] (H-DDNTSYHRGFTED-OH; N-terminus and C-terminus assumed), the pKd in experiment [4] (setting [6]) is < 3.70. The “KD (μM)” value in experiment [4] is reported as “No binding”.
For `CSCC[C@H](NC(=O)[C@H](CC(C)C)NC(=O)[C@H](Cc1c[nH]c2ccccc12)NC(=O)[C@H](CCC(=O)O)NC(=O)[C@@H](NC(=O)[C@H](CCC(=O)O)NC(=O)[C@H](CC(N)=O)NC(=O)[C@H](CCC(=O)O)NC(=O)[C@H](CC(=O)O)NC(=O)[C@@H](NC(=O)[C@H](CCC(=O)O)NC(=O)[C@H](CCC(=O)O)NC(=O)[C@@H](N)CCC(=O)O)[C@@H](C)O)[C@@H](C)O)C(=O)O` [CIMPR_WLM] (H-EEETDENETEWLM-OH; N-terminus and C-terminus assumed), the pKd in experiment [4] (setting [6]) was < 3.70. The “KD (μM)” value in experiment [4] was “no binding”.
For the molecule `CC(C)[C@H](NC(=O)[C@@H](NC(=O)[C@H](CCC(=O)O)NC(=O)[C@H](CCC(=O)O)NC(=O)[C@H](CC(=O)O)NC(=O)[C@H](CO)NC(=O)[C@@H](N)CC(=O)O)[C@@H](C)O)C(=O)N[C@@H](Cc1ccccc1)C(=O)N[C@@H](CCC(=O)O)C(=O)N[C@@H](CO)C(=O)O` [FAM174C_TVF] (H-DSDEETVFES-OH), the pKd in experiment [4] (setting [7]) was 4.80.
Regarding `C[C@H](NC(=O)[C@@H](NC(=O)[C@H](CC(N)=O)NC(=O)[C@H](CC(=O)O)NC(=O)[C@@H](N)CC(=O)O)[C@@H](C)O)C(=O)N[C@@H](Cc1ccc(O)cc1)C(=O)N[C@@H](Cc1c[nH]cn1)C(=O)N[C@@H](CCCNC(=N)N)C(=O)NCC(=O)N[C@@H](Cc1ccccc1)C(=O)N[C@H](C(=O)N[C@@H](CCC(=O)O)C(=O)N[C@@H](CC(=O)O)C(=O)O)[C@@H](C)O` [STX16_LtoA] (H-DDNTAYHRGFTED-OH; N-terminus and C-terminus assumed), the “reduction of binding relative to wild-type syntaxin-16 peptide” value in experiment [4] is reported as > 100 fold. Further, in experiment [4] (setting [6]), the pKd was < 3.70.
Regarding `CC(C)C[C@H](NC(=O)[C@@H](NC(=O)[C@H](CC(N)=O)NC(=O)[C@H](CC(=O)O)NC(=O)[C@@H](N)CC(=O)O)[C@@H](C)O)C(=O)N[C@@H](CO)C(=O)N[C@@H](Cc1c[nH]cn1)C(=O)N[C@@H](CCCNC(=N)N)C(=O)NCC(=O)N[C@@H](Cc1ccccc1)C(=O)N[C@H](C(=O)N[C@@H](CCC(=O)O)C(=O)N[C@@H](CC(=O)O)C(=O)O)[C@@H](C)O` [STX16_YtoS] (H-DDNTLSHRGFTED-OH; N-terminus and C-terminus assumed), the pKd in experiment [4] (setting [6]) is < 3.70. For the same molecule, the “KD (μM)” value in experiment [4] is listed as “No binding”.
Regarding `CC(C)[C@H](NC(=O)[C@@H](NC(=O)[C@H](CO)NC(=O)[C@H](Cc1ccc(O)cc1)NC(=O)[C@@H](NC(=O)[C@@H](NC(=O)[C@H](CC(N)=O)NC(=O)[C@H](C)NC(=O)[C@@H]1CCCN1C(=O)[C@H](CC(=O)O)NC(=O)[C@@H](N)CCC(=O)O)[C@@H](C)O)C(C)C)[C@@H](C)O)C(=O)N[C@@H](CCC(=O)O)C(=O)O` [SLAMF7_TVY] (H-EDPANTVYSTVE-OH; N-terminus and C-terminus assumed), the pKd in experiment [4] (setting [6]) was < 3.70. The “KD (μM)” value in experiment [4] was “no binding”.
